Earlier results as cited in patent US20080008772A1, “Narcotic biphasic release compositions and methods for treatment of coughing, sneezing, rhinorrhea, and/or nasal obstruction” (Everett Laboratories, Inc., priority 2006, published 2008).

Legend:
[1] = in vivo

Question: With COc1ccccc1OCC(O)CO (centres unmarked) [Guaifenesin, 3-(2-methoxyphenoxy)-1,2 propanediol] as the compound, how does the plasma half life [1] read?
Answer: one

Question: With COc1ccc2c3c1O[C@H]1C(=O)CC[C@H]4[C@@H](C2)N(C)CC[C@]314.COc1ccc2c3c1O[C@H]1C(=O)CC[C@H]4[C@@H](C2)N(C)CC[C@]314.O.O.O.O.O.O=C(O)C(O)C(O)C(=O)O.O=C(O)C(O)C(O)C(=O)O [Hydrocodone bitartrate, 4,5a-epoxy-3-methoxy-17-methylmorphinan-6-one tartrate (1:1)hydrate (2:5)] as the compound, how does the sedative action (at equi-effective doses, versus codeine) read?
Answer: greater than codeine

Question: With COc1ccc2c3c1O[C@H]1C(=O)CC[C@H]4[C@@H](C2)N(C)CC[C@]314 [hydrocodone, 4,5α-epoxy-3-methoxy-17-methylmorphinan-6-one] as the compound, how does the analgesic effects (at therapeutic antitussive doses) read?
Answer: does exert analgesic effects

Question: What about the “effects on the cardiovascular system” value (therapeutic doses) of the same compound?
Answer: insignificant

Question: What about the constipation effects (versus morphine and codeine) of the same compound?
Answer: much weaker than that of morphine and no stronger than that of codeine
